# Publication PMC12484723, “COOKIE-Pro: covalent inhibitor binding kinetics profiling on the proteome scale” (Nature Communications, 2025)
# What was measured:
# [1] = biological target: T1, TEC kinase (Homo sapiens, UniProt P42680); assay: COOKIE-Pro competition chemoproteomics in permeabilized Ramos cells (kinact, KI); type: cell-based
# T1 sequence (P42680 1-631): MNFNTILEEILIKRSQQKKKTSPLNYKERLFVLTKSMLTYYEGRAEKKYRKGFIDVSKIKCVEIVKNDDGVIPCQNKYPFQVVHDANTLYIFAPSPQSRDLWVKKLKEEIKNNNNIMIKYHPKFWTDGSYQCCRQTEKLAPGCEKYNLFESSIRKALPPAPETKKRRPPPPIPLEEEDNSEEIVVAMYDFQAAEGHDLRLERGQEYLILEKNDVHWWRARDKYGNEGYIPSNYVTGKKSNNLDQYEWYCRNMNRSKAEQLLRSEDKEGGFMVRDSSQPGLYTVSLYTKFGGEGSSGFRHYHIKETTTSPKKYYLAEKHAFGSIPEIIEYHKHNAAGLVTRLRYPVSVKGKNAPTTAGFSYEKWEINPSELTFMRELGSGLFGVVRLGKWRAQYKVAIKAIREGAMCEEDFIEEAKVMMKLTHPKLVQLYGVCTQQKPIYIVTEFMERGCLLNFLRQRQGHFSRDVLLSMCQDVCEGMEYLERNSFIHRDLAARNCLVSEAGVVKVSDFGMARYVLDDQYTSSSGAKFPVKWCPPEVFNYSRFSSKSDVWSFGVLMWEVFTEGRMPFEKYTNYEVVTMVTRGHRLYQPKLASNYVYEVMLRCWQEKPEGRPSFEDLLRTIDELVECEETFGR
# [2] = biological target: BLK (Homo sapiens, UniProt P51451); assay: as above; type: cell-based
# Sequence of BLK (P51451 2-505): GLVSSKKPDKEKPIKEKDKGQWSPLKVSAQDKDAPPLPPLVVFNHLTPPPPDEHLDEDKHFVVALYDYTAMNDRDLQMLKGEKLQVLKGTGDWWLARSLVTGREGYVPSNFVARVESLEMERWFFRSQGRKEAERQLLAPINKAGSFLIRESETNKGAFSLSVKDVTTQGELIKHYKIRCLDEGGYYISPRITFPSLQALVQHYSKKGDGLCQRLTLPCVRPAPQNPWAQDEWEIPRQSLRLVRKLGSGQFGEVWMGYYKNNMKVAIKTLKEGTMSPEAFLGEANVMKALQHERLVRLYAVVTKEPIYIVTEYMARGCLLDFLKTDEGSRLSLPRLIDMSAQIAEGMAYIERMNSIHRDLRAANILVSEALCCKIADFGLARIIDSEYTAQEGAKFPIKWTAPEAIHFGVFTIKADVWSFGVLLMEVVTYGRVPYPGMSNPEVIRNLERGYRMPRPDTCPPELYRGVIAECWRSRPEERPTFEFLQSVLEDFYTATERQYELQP
smiles,measurement,setting,value
C=CC(=O)N1CCC[C@@H](n2nc(-c3ccc(Oc4ccccc4)cc3)c3c(N)ncnc32)C1 [ibrutinib],KI (inactivation),[1],233 nM
same,KI (inactivation),[2],28 nM
